These results are taken from patent US10189785B2, “Heterocyclic compound” (TAKEDA PHARMACEUTICAL COMPANY LIMITED, priority 2015, dated 2019).

Test [1] deals with T1, SPT (SPT2-expressing membrane fraction: human SPT1, human SPT2 and human ssSPTa) (Homo sapiens, UniProt O15269+O15270).
T1 construct: Full-length human SPT1, human SPT2 and human ssSPTa used; made in house; host or cells: FreeStyle 293 cells (pcDNA3.1 vectors, cotransfection); crude membrane fraction used
T1 sequence (O15269 1-473): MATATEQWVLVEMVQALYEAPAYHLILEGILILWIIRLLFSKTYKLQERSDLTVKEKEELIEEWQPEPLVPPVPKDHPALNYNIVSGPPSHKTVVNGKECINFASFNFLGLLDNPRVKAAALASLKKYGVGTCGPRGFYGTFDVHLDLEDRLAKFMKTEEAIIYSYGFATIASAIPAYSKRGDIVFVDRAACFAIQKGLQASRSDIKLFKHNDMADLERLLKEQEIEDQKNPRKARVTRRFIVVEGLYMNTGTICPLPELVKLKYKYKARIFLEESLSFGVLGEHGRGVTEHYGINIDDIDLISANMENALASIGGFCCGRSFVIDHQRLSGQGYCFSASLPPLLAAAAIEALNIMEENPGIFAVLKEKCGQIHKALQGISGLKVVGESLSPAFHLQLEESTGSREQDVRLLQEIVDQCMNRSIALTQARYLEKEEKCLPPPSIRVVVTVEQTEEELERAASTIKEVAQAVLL
T1 sequence (O15270 1-562): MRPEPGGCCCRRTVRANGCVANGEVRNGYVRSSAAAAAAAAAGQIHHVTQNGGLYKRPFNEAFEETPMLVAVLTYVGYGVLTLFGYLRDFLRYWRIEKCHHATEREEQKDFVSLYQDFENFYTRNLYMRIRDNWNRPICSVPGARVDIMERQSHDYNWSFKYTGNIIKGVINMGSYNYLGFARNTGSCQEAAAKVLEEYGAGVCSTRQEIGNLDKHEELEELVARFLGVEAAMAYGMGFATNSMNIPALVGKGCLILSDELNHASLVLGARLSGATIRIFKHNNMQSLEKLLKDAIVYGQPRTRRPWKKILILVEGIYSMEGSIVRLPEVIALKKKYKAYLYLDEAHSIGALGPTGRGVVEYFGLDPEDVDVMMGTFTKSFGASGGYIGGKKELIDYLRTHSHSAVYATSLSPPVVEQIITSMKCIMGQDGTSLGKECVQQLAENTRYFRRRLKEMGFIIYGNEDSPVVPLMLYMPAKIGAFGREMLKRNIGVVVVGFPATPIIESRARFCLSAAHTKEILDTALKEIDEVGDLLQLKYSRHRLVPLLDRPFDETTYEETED
T1 sequence (Q969W0 1-71 partner): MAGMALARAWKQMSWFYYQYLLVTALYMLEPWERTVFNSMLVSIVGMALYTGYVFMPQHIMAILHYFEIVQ
Nature of the test: SPT enzyme inhibition test (Test Example 1). It counts as biochemical. The following applies: read-out: Rate of inhibition (%) at 1 μM. The procedure:
After culture for 3 days, the cells were recovered and frozen at −80° C. to obtain expressing cells. The frozen cells were suspended in a 50 mM Hepes buffer (pH 7.5) containing 250 mM sucrose, 5 mM ethylenediaminetetraacetic acid (EDTA), 5 mM dithiothreitol (DTT) and Complete, EDTA-free (Roche Applied Science, Penzberg, Upper Bavaria, Germany). The cells were disrupted (on ice, 20,000 rpm, 20 sec×2) using POLYTORON (Central Scientific Commerce, Inc.). After centrifugation at 2000 rpm (850×g) for 10 minutes, the supernatant was recovered. Subsequently, the supernatant was centrifuged at 40,000 rpm (186,010×g) for 60 minutes, and the supernatant was discarded. The pellets were suspended in a 50 mM Hepes buffer (pH 7.5) containing 5 mM EDTA, 5 mM DTT and Complete, EDTA-free, passed through a 40-μm cell strainer and stored at −80° C. The resultant was used as a SPT2-expressing membrane fraction. The protein concentration was determined using CBB Protein Assay with bovine serum albumin used as standards.
5 μL of each test compound was mixed with 10 μL of the 100 μg/mL SPT2-expressing membrane fraction using an assay buffer (100 mM Hepes (pH 8.0) containing 2.5 mM EDTA, 5 mM DTT and 0.01% fatty acid-free bovine serum albumin), and the mixture was left standing at room temperature for 60 minutes. Subsequently, 5 μL of a substrate solution containing 2 mM L-serine and 20 μM palmitoyl CoA was added thereto, and an enzyme reaction was carried out in a 384-well plate using 20 μL in total of the reaction system. After reaction at room temperature for 15 minutes, the reaction was terminated by the addition of 20 μL of a 2% aqueous formic acid solution. Subsequently, 40 μL of acetonitrile containing 600 nM C17-sphinganine (Avanti Polar Lipids, Inc., Alabaster, Ala., U.S.) was added thereto as an internal standard. The reaction sample was subjected to on-line solid-layer extraction using RapidFire 300 (Agilent Technologies Inc., Santa Clara, Calif., U.S.). […] Mass chromatograms were obtained using Analyst software (version 1.5.0, AB SCIEX). Their mass chromatogram areas were respectively calculated, and the rate of inhibition (%) by the test compound was calculated using an area ratio (the value of the reaction product was divided by the value of the internal standard).

For test [2], the system named is lung adenocarcinoma cell line HCC4006. Briefly: HCC4006 cell growth inhibition test (Test Example 2). The format is cell-based. The following applies: Homo sapiens, 120 h; 1 μM test compound; HCC4006 cells, culture for 5 days, CellTiter-Glo; read-out: Rate of inhibition (%) at 1 μM. The procedure:
A lung adenocarcinoma cell line HCC4006 (ATCC) was cultured using an RPMI-1640 medium (Wako Pure Chemical Industries, Ltd.) containing 10% fetal bovine serum and penicillin/streptomycin. 250 cells per well were inoculated into 40 μL of a medium in a 384-well culture plate. On the next day, 10 μL of each test compound was added to the cells. After culture for 5 days, the medium was discarded, and 30 μL of CellTiter-Glo Luminescent Cell Viability Assay solution (Promega Corp., Fitchburg, Wis., U.S.) was added to each well. Light emission signals were measured using EnVision (PerkinElmer, Inc., Waltham, Mass., U.S.).
The rate of inhibition (%) by the test compound was calculated according to the following expression: Rate of inhibition (%)=(1−(Count of the test compound−Blank)/(Control−Blank))×100
In the above expression, a count under compound non-addition conditions was indicated as a control, and a count under cell-free conditions was indicated as a blank.
(In general: In ATP-based viability assays light output follows the ATP content of the culture.)

The structures appear in SMILES notation.

Consider `COc1cc(C(=O)N2CC[C@H](NC(=O)c3ccccc3OC(F)(F)F)c3c2cnn3C)cnc1OC` [Example 171A, N-((7S)-4-((5,6-Dimethoxypyridin-3-yl)carbonyl)-1-methyl-4,5,6,7-tetrahydro-1H-pyrazolo[4,3-b]pyridin-7-yl)-2-(trifluoromethoxy)benzamide], for which the figures for the inhibition at 1 µM in test [1] and in test [2] were 101% and 50%, respectively.
For `Cc1cc(C(=O)N2CC[C@@H](NC(=O)c3ncccc3C(F)(F)F)[C@@H](c3ccccc3)C2)cn2c(C)cnc12` [Example 279B, N-((3S,4R)-1-((3,8-dimethylimidazo[1,2-a]pyridin-6-yl)carbonyl)-3-phenylpiperidin-4-yl)-3-(trifluoromethyl)pyridine-2-carboxamide], in that order: 103% and 44%.
Turning to `CCn1ncc2c1C(NC(=O)c1ccccc1OC(F)(F)F)CCN2C(=O)c1cnc(OC)c(OC)c1` (centres unmarked) [Example 155A, N-(4-((5,6-Dimethoxypyridin-3-yl)carbonyl)-1-ethyl-4,5,6,7-tetrahydro-1H-pyrazolo[4,3-b]pyridin-7-yl)-2-(trifluoromethoxy)benzamide], the inhibition at 1 µM in test [1] turned out to be 103%; in test [2], 53%.
`Cn1cnc2ccc(C(=O)N3CC[C@@H](NC(=O)c4ccccc4OC(F)(F)F)[C@@H](c4ccccc4)C3)cc21` [Example 104B, N-((3S,4R)-1-((1-methyl-1H-benzimidazol-6-yl)carbonyl)-3-phenylpiperidin-4-yl)-2-(trifluoromethoxy)benzamide]: the results for the inhibition at 1 µM in test [1] and in test [2] were 101% and 53%, respectively.
For `CCn1ncc2c1[C@@H](NC(=O)c1ccc(Cl)cc1C(F)(F)F)CCN2C(=O)c1cnc(OC)c(OC)c1` [Example 165A, 4-Chloro-N-((7S)-4-((5,6-dimethoxypyridin-3-yl)carbonyl)-1-ethyl-4,5,6,7-tetrahydro-1H-pyrazolo[4,3-b]pyridin-7-yl)-2-(trifluoromethyl)benzamide] the same measures were 101% and 52%.
For `Cc1cc(C(=O)N2CC[C@@H](NC(=O)c3ncccc3C(F)(F)F)[C@@H](c3ccccc3)C2)cc2nccnc12` [Example 74B, N-((3S,4R)-1-((8-Methylquinoxalin-6-yl)carbonyl)-3-phenylpiperidin-4-yl)-3-(trifluoromethyl)pyridine-2-carboxamide], in that order: 100% and 45%.
Take `COc1cc(C(=O)N2CC[C@@H](NC(=O)c3ccccc3S(C)(=O)=O)[C@@H](c3ccccc3)C2)cnc1OC` [Example 141B, N-((3S,4R)-1-((5,6-dimethoxypyridin-3-yl)carbonyl)-3-phenylpiperidin-4-yl)-2-(methylsulfonyl)benzamide]: the inhibition at 1 µM in test [1] was determined as 101%; in test [2], 52%.
As to `COc1ncc(C(=O)N2CCC(NC(=O)c3ccc(Cl)cc3C(F)(F)F)c3c2cnn3CC(F)F)cc1Cl` (centres unmarked) [Example 126A, 4-Chloro-N-(4-((5-chloro-6-methoxypyridin-3-yl)carbonyl)-1-(2,2-difluoroethyl)-4,5,6,7-tetrahydro-1H-pyrazolo[4,3-b]pyridin-7-yl)-2-(trifluoromethyl)benzamide], the results for the inhibition at 1 µM in test [1] and in test [2] were 101% and 45%, respectively.
`O=C(N[C@@H]1CCN(C(=O)c2cc(Cl)c3nccnc3c2)C[C@@H]1c1ccccc1)c1ncccc1Cl` [Example 246B, 3-Chloro-N-((3S,4R)-1-((8-chloroquinoxalin-6-yl)carbonyl)-3-phenylpiperidin-4-yl)pyridine-2-carboxamide]: the inhibition at 1 µM in test [1] amounted to 101%; in test [2], 55%.
Regarding `COc1cc(C(=O)N2CC[C@@H](NC(=O)c3cnccc3C(F)(F)F)[C@@H](c3ccccc3)C2)cnc1OC` [Example 139B, N-((3S,4R)-1-((5,6-dimethoxypyridin-3-yl)carbonyl)-3-phenylpiperidin-4-yl)-4-(trifluoromethyl)nicotinamide], the results for the inhibition at 1 µM in test [1] and in test [2] were 100% and 52%, respectively.
For the compound `COc1ccc(C(=O)N2CCC(NC(=O)c3ncccc3C(F)(F)F)c3c2cnn3C)cc1OC` (centres unmarked) [Example 100A, N-(4-(3,4-dimethoxybenzoyl)-1-methyl-4,5,6,7-tetrahydro-1H-pyrazolo[4,3-b]pyridin-7-yl)-3-(trifluoromethyl)pyridine-2-carboxamide], the inhibition at 1 µM worked out at 97% in test [1] and 39% in test [2].
On to `COc1cc(C(=O)N2CCC(NC(=O)c3ccccc3OC(F)(F)F)c3c2cnn3C(C)C)cnc1OC` (centres unmarked) [Example 132A, N-(4-((5,6-Dimethoxypyridin-3-yl)carbonyl)-1-isopropyl-4,5,6,7-tetrahydro-1H-pyrazolo[4,3-b]pyridin-7-yl)-2-(trifluoromethoxy)benzamide], for which the inhibition at 1 µM in test [2] is 52%.
In the case of `COc1ccc(C(=O)N2CC[C@H](NC(=O)c3ccccc3Cl)c3c2cnn3C(C)C)cc1OC` [Example 74A, 2-Chloro-N-((7S)-4-(3,4-dimethoxybenzoyl)-1-isopropyl-4,5,6,7-tetrahydro-1H-pyrazolo[4,3-b]pyridin-7-yl)benzamide], in test [2], the inhibition at 1 µM is 51%.
Take `COc1ccc(C(=O)N2CCC(NC(=O)c3ccccc3Cl)c3c2cnn3C(C)C)cc1OC` (centres unmarked) [Example 36A, 2-Chloro-N-(4-(3,4-dimethoxybenzoyl)-1-isopropyl-4,5,6,7-tetrahydro-1H-pyrazolo[4,3-b]pyridin-7-yl)benzamide]: the inhibition at 1 µM in test [2] turned out to be 47%.
Take `COc1ccc(C(=O)N2CCC(NC(=O)c3ccccc3Cl)c3ccc(Cl)cc32)cc1OC` (centres unmarked) [Example 201A, 2-Chloro-N-(7-chloro-1-(3,4-dimethoxybenzoyl)-1,2,3,4-tetrahydroquinolin-4-yl)benzamide]: the inhibition at 1 µM in test [2] turned out to be 40%.

Broadly, the inhibition is the change of the read-out against control, counted positive when it falls.
